Measurements from patent US7868047B2, “Anti-inflammatory and psoriasis treatment and protein kinase inhibition by hydroxy stilbenes and novel stilbene derivatives and analogues” (Welichem Biotech Inc., priority 1999, dated 2011).
Where “and” joins values, the source holds several entries; their conditions need not be identical. Equal values may be shown once. Read-outs that look alike come from different tables or passages of the source.

Columns and labels:
human PBMC = test: Proliferation of PHA-stimulated human PBMC (MTT); assay type: cell-based; conditions: for IC50: MTT after 48 hours
Experimental: (§1) (a). Effect on proliferation and IFN-γ production of human peripheral blood mononuclear cells (PBMC) stimulated by phytochemagglutinin (PHA).
(§2) Experiment: PBMC were cultured with PHA and cultured with titrated concentrations of compounds or solvent, or media alone using standard cell culture techniques. The MTT assay was performed after 48 hours of culture. Supernatants were collected after 48 hours of culture and levels of IFN-γ were assayed by ELISA.

Human keratinocytes = test: Human keratinocyte proliferation (MTT); assay type: cell-based; conditions: for IC50: Homo sapiens, Keratinocyte, in the presence of IFN-γ, MTT after 48 hours
Experimental: Human keratinocytes were cultured in the presence of IFN-γ and titrated concentrations of drug or the vehicle. The MTT assay was performed after 48 hours of culture.

IFN-γ = IFN-γ production by PHA-stimulated human PBMC (ELISA); assay type: cell-based; conditions: for IC50: PHA-stimulated human PBMC, supernatant after 48 hours, ELISA
Experimental: as §1, §2

TNF-α = test: Endotoxemia mouse model, serum TNF-α after LPS; assay type: in vivo; conditions: for TNF-α: serum 150 min after LPS 40 mg/kg IP, compounds 25 mg/kg then 3 x 12.5 mg/kg IP (dexamethasone 0.4 then 3 x 0.2 mg/kg); for TNF-α levels in mice blood induced by LPS: P<0.05
Description: The in vivo endotoxemia model used in these studies represents a mouse showing the early inflammatory response. Such severe infection can be caused by Gram negative bacteria may lead to the development of septic shock. This toxicity is caused by the lipopolysaccharide (LPS) component of the bacterial cell wall, and injection of LPS into mice can mimic the physiological response typical of the septic shock syndrome. LPS-mediated toxicity is due to the release of cytokines such as TNF-α, IL-1 and IFN-γ by activated macrophages, and the degree of toxicity can be measured by the level of these cytokines in the blood.
Experiment: Test compounds were dissolved and formulated in 50% PEG-400 in water. Female Balb/c mice (˜20 g) were first injected separately intraperitoneally (IP) with 25 mg/kg of each test compound, then challenged by injection with 40 mg/kg lipopolysaccharide (LPS) (IP) 30 minutes later. One drug injection with 12.5 mg/kg of test compound was done at the same time as (LPS challenge and two subsequent sequential injections at 30 minutes intervals. Positive control of dexamethasone was administered in a similar manner starting at 0.4 mg/kg and subsequently 0.2 mg/kg for three additional injections. Mice were sacrificed and blood collected by cardiac puncture 150 minutes after LPS challenge. The serum TNF-α levels were determined by ELISA. Each test group was comprised of six mice. Group of mice injected with the vehicle alone was used as negative control.

[1] = tested on: acute colon inflammation induced by 5% DSS; test: DSS (5%) acute colon inflammation mouse model, therapeutic experiment; assay type: in vivo
Description: To assess the in vivo efficacy for preventive and therapeutic activities of these compounds on IBD, two experiments were designed and tested using the dextran sulfate sodium (DSS) experimental mouse model for human IBD.
For the therapeutic experiment a further experiment was done to test different doses of 9A on severe, acute intestinal inflammation in mice induced by a high dose of DSS (5%). In this experiment, drug treatment started from day 3 post DSS induction when disease symptom was established. 9A (200 mg/kg or 100 mg/kg) was administered through oral […] once daily and a commercial drug, sulfasalazine (SASP, 100 mg/kg/day) was used as positive control. Experiment was terminated at day 7 and the efficacy was assessed.

TPA-induced ear edema = TPA-induced ear edema model; assay type: in vivo, mouse; conditions: TPA 0.01%, ear thickness 6 hours after TPA
Experimental: Experiment: Three representative compounds, 5-(2-phenylethenyl)-2-1-propyl-1,3-benzenediol, as previously reported, a closely related stilbene derivative (WO 0142231) and compound 39B, a novel compound of the current invention, were assayed against the edema on female mice (Balb/c) aged 10-12 weeks, using 0.01% Calcitriol (a commercial standard) as a positive control. Phorbol-12-myristate-13-acetate (TPA) was used as the edema inducer. TPA and the test compounds were all dissolved in 100% ethanol and 20 μl applied on the right ear of the mouse with six mice per group. The TPA concentration used was 0.01% (w/v). Ear thickness was measured 6 hours after TPA treatment to determine if edema was decreased. In each experiment replicated groups of TPA treated mice were treated with either 5-(2-phenylethenyl)-2-1-propyl-1,3-benzenediol, Calcitriol, compound 39B or only ethanol, and the level of inhibition was obtained by measuring the thickness of the ear and expressing the difference in thickness of the treated ear from that of the ethanol treated ear, as a percentage.

DSS-induced IBD = test: DSS (2%) IBD mouse model, preventive experiment; assay type: in vivo; conditions: 500 mg/kg/day oral with 2% DSS, day 7
Experimental: To assess the in vivo efficacy for preventive and therapeutic activities of these compounds on IBD, two experiments were designed and tested using the dextran sulfate sodium (DSS) experimental mouse model for human IBD. For the preventive experiment, compounds 9A and 39B were simultaneously administrated orally with 2% DSS at the dose of 500 mg/kg/day. Vehicle alone and glucocorticoid (dexamethasone 20 mg/kg/day) were used as controls. At day 7, mice were sacrificed, examined for stool appearance, diarrhea and colon macroscopic damage including ulceration, inflammation and adhesion. Colon samples were also taken and fixed in 10% formalin for histological assessment of architecture, ulceration, inflammation and serosal damage.

VEGF = VEGF protein expression of keratinocytes induced by rhTGF-α (ELISA); assay type: cell-based, human; conditions: for VEGF: supernatant, rhTGF-α 100 ng/ml, 24 h
Experimental: Experiment: Compound 39B was dissolved in DMSO, diluted with keratinocyte-serum-free medium (KC-SFM) to 10^3 μg/ml, further diluted with the culture medium and tested at the following concentrations: 10, 1, 0.1 and 0.01 μg/ml. Prime cultures of keratinocytes were obtained from a commercial source and maintained with KC-SFM at a cell density of 10^6/ml. In the test, cells were cultured in 24-well plates and incubated at 37° C. in 5% CO2 first for 4 h, and then treated with rhTGF-α (final concentration 100 ng/ml) and the test compound at different concentrations (0.01-10 μg/ml). Medium without test compound was the negative control. The culture supernatant from each well was separately collected after an additional 24 h incubation and centrifuged at 2000 rpm for 5 minutes before measuring the VEGF concentration. VEGF concentration in the supernatant in each well was calculated based on measurements taken using an ELISA kit, according to the manufacturer's instructions.

[2] = tested on: human white blood cells (WBC); test: Migration of human white blood cells induced by leukotriene B4 (agarose plate); assay type: cell-based; conditions: for % Migration: towards LTB4, 5 h
Experimental: Experiment: WBC collected from donors was mixed with equal volume of 3% dextran (in 0.15M NaCl). The red blood cells were sedimented (45 minutes, room temperature) and removed. Any remaining red blood cells in the plasma were removed by adding 150 mM of Tris-NH4Cl. The leukocyte-rich plasma was washed twice in Hanks balanced salts solution containing 20 mM HEPES. The WBC was then transferred to RPMI-1640 medium and adjusted to a density of 5×10^7 cells/ml. An agarose plate assay system (Nelson et al. 1978) was used to measure the WBC migration. Briefly, a 0.8% agarose solution was prepared with complete RPMI-1640 cell culture medium. About 3.5 ml of this agarose solution was transferred to a glass slide before it solidified. Wells were made on the slide in a 3×6 array fashion (02 mm, inter-well distance 3 mm) once the agarose had solidified. LTB4 was dissolved in anhydrous ethanol to 104 ng/ml and further diluted with the RPMI-1640 medium to 10 ng/ml for the test. Compound 39B was dissolved in DMSO, diluted with RPMI-1640 to 10^3 μg/ml and tested at the following concentrations: 100, 10, 1, 0.1 and 0.01 μg/ml. Ten microlitres of cell suspension with different concentrations of compound 39B was added to each well of the center row of the three rows of wells. The same volume of LTB4 in RPMI-1640 medium or the medium alone was added to wells in the other rows and served as controls. After 5 h incubation (5% CO2, 37° C.) the test slides were fixed with 100% methanol (30 min) and dried at 4° C. (overnight). The slides were then examined microscopically. The migration index was defined as the average distances that cells migrated towards the positive LTB4 well divided by that of spontaneous migration. The percentage migration was compared between treatment and the non-drug control. The dose-effect relationship was determined by plotting the percentage chemotaxis vs concentration for IC50 values.

[3] = Homo sapiens, PBMC, PHA-stimulated, read-out: IC50 against human PBMC proliferation
[4] = Homo sapiens, PBMC, PHA-stimulated, read-out: IC50 against human PBMC proliferation (unit inferred)
[5] = PHA-stimulated, read-out: IC50 against human PBMC proliferation

CCCCCCCCCCCCCCc1c(O)cc(/C=C/c2ccccc2)cc1O [Compound 16A-b, 3,5-Dihydroxy-4-myristyl-trans-stilbene]
melting point: 125 to 128 °C

COc1cc(/C=C/c2ccccc2)cc(OC)c1Br [Compound 14A, 3,5-Dimethoxy-4-bromo-trans-stilbene]
melting point: 149 to 152 °C

CCCCCCCCCCCCCCc1c(OC)cc(/C=C/c2ccccc2)cc1OC [Compound 15A-b, 3,5-Dimethoxy-4-myristyl-trans-stilbene]
melting point: 68 to 70 °C

Oc1ccc(C=Cc2cc(O)cc(O)c2)cc1 [Resveratrol, resveratrol, reference compound]
IC50 (human PBMC; [3]): > 50 µM
IC50 (human PBMC; [4]): > 50 µM
IC50 against human PBMC proliferation (human PBMC; PHA-stimulated, 50 the highest concentration tested): > 50 µM
IC50 (Human keratinocytes): > 50 µM
IC50 (IFN-γ): 39.2 µM

CCc1c(OC)cc(/C=C/c2ccccc2)cc1OC [Compound 15A-a, 3,5-Dimethoxy-4-ethyl-trans-stilbene]
melting point: 70 to 73 °C

CC(C)c1c(O)cc(C=Cc2cccc(F)c2)cc1O [Compound 38B, 5-[2-(3-Fluorophenyl)ethenyl]-2-1-propylphenyl-1,3-diol]
IC50 (human PBMC; [5]): 9.91 µM
IC50 (IFN-γ): 4.29 µM

C[C@@H]1C[C@H]2[C@@H]3CCC4=CC(=O)C=C[C@]4(C)[C@@]3(F)[C@@H](O)C[C@]2(C)[C@@]1(O)C(=O)CO [Dexamethasone, dexamethasone, reference compound]
TNF-α (TNF-α): 281.3 ± 67.2 pg/mL

O=C(O)c1cc(/N=N/c2ccc(S(=O)(=O)Nc3ccccn3)cc2)ccc1O [SASP, sulfasalazine, reference compound]
Bleeding score ([1]; 100 mg/kg oral daily, day seven, mean ± SEM, n = 9, 1 = normal, 2 = bloody stool, 4 = gross bleeding): 3.6 ± 0.24
Diarrheal score ([1]; 100 mg/kg oral daily, day seven, mean ± SEM, n = 9, 1 = normal, 2 = loose stools, 4 = diarrhea): 2.8 ± 0.49
survival rate vs control treatment ([1]; 5% DSS, treatment from day 3): significantly higher survival rate

CC(C)c1c(O)cc(C=Cc2ccc(F)cc2)cc1O [Compound 39B]
IC50 (human PBMC; [5]): 7.36 µM
% edema inhibition (TPA-induced ear edema; 0.3% single topical): 85% and 85.2%
macroscopic and microscopic diseases scores (DSS-induced IBD): significantly decreased
VEGF (VEGF; 1.6 μM): 34.4 ± 2.0 pg/mL
VEGF (VEGF; 8 μM): 33.6 ± 1.8 pg/mL
decrease of VEGF protein concentration (VEGF; 40 μM, 24-h treatment): 100%
VEGF (VEGF; 40 μM): 0 ± 0 pg/mL
IC50 (IFN-γ): 4.16 µM
inhibition of migration of WBC towards LTB4 [2]: dose-dependent manner
% Migration ([2]; 0.32 μM): 88.46 ± 18.6%
% Migration ([2]; 1.6 μM): 83.85 ± 15.9%
% Migration ([2]; 8 μM): 58.46 ± 4.3%
% Migration ([2]; 40 μM): 13.07 ± 5.8%
TNF-α levels in mice blood induced by LPS (TNF-α): decreased significantly
TNF-α (TNF-α): 601.6 ± 211.9 pg/mL

CCc1c(O)cc(/C=C/c2ccccc2)cc1O [Compound 16A-a, 3,5-Dihydroxy-4-ethyl-trans-stilbene]
melting point: 143 to 146 °C

CCCc1c(O)cc(C=Cc2ccccc2F)cc1O [Compound 37B, 5-[2-(2-Fluorophenyl)ethenyl]-2-1-propyl-1,3-benzenediol]
IC50 (human PBMC; [3]): 5.62 µM
IC50 (IFN-γ): 3.8 µM
TNF-α levels in mice blood induced by LPS (TNF-α): decreased significantly
TNF-α (TNF-α): 638.9 ± 273.0 pg/mL

COc1cc(/C=C/c2ccccc2)cc(OC)c1C(C)C [Compound 8A, 3,5-Dimethoxy-4-isopropyl-trans-stilbene]
melting point: 64 to 66 °C

C=C1/C(=C\C=C2/CCC[C@]3(C)[C@@H]([C@H](C)CCCC(C)(C)O)CC[C@@H]23)C[C@@H](O)C[C@@H]1O [Calcitriol, reference compound]
% edema inhibition (TPA-induced ear edema; 0.01% single topical): 31% and 31.2%

CCCc1c(O)cc(C=Cc2ccc(O)cc2)cc1O [Compound 13B, 5-[2-(4-Hydroxyphenyl)ethenyl]-2-1-propyl-1,3-benzenediol]
potency in inhibiting PBMC proliferation relative to resveratrol (human PBMC): 20 times
IC50 (human PBMC; [3]): 2.97 µM
IC50 (human PBMC; [4]): 2.97 µM
potency on keratinocyte proliferation relative to resveratrol (Human keratinocytes): more than 10 times
IC50 (Human keratinocytes): 4.3 µM
potency in inhibiting IFN-γ production relative to resveratrol (IFN-γ): more than 15 times
IC50 (IFN-γ): 2.55 µM
